Data reported in article PMC7932537, “Quantitative profiling of protease specificity” (PLoS Computational Biology, 2021).

What was measured:
MMP-2 = test: Substrate phage display with NGS: relative probability (RP) of P3-P1' tetramer clusters; format: biochemical, human; settings: for avg_RP: MMP2 - no binning, average relative probability of the tetramer, redundant tetramers averaged out; for relative probability (RP) of matching tetramer: P3-P1' tetramer matching the MS detected MMP2 cleavage sequence, RP_above_4.5; for normalized RP - MMP2: normalized RP of matching tetramer
MMP-9 = test: as above; format: biochemical, human; settings: for normalized RP - MMP9: normalized RP of matching tetramer
[1] = RP of the P3-P1' tetramer, MMP2 substrate phage display/NGS, tetramers of physiologic MEROPS substrates common to MMP2 and MMP9
[2] = RP of the P3-P1' tetramer, MMP9 substrate phage display/NGS, tetramers of physiologic MEROPS substrates common to MMP2 and MMP9
[3] = RP according to MMP2, P3-P1' tetramer of unique physiologic MMP2 substrates from MEROPS
[4] = RP of the P3-P1' tetramer cluster contained in the hexamer, 200 nM MMP-2, 2 h, 37°C, two rounds of selection
[5] = MMP9, RP of the P3-P1' tetramer contained in the hexamer substrate (substrate phage display, NGS)
[6] = MMP2, RP of matching P3-P1' tetramer, common set of MMP2-9 selectome, RP above KL threshold
[7] = RP of matching tetramer, common MMP2-9 selectome
[8] = MMP9, RP of matching P3-P1' tetramer, common set of MMP2-9 selectome
[9] = MMP9, RP of the P3-P1' tetramer matching the MS detected cleavage, RP above 4.7, substrate phage display with NGS
[10] = RP of matching tetramer, common MMP2-9 selectome, RP above KL threshold
[11] = RP of matching tetramer, unique part of MMP2 selectome, RP above KL threshold
[12] = RP of matching tetramer, unique part of MMP2 selectome

## PYGL
MMP-2
  avg_RP: 32.9966
MMP-2; [1]
  relative probability (RP) (acc.to MMP2): 33
MMP-9; [2]
  relative probability (RP) (acc.to MMP9): 49.41

## PGAY
MMP-2; [1]
  relative probability (RP) (acc.to MMP2): 27.42
MMP-9; [2]
  relative probability (RP) (acc.to MMP9): 33.81

## RGEL
MMP-2; MMP2 tetramers from unique substrates, unrounded values
  MMP2 relative probability (RP): 14.9989
MMP-2; [3]
  Relative probability (RP) rank: 3096
  relative probability (RP): 15
MMP-9; MMP2 tetramers from unique substrates, RP of same tetramer for MMP9
  corresponding MMP9 relative probability (RP): 0.3681

## KSPSRL
MMP-2; [4]
  relative probability (RP): 31.7732
MMP-9; [5]
  relative probability (RP): 39.8157

## PRHS
MMP-2; [6]
  relative probability (RP) (acc.to MMP2): 13.22
MMP-2
  relative probability (RP) of matching tetramer: 13.22
MMP-2; [7]
  relative probability (RP) (acc.to MMP2): 13.22
MMP-9; [8]
  relative probability (RP) (acc.to MMP9): 18.44
MMP-9; [9]
  relative probability (RP): 18.44
MMP-9; [10]
  relative probability (RP) (acc.to MMP9): 18.44

## PKGQ
MMP-2; [1]
  relative probability (RP) (acc.to MMP2): 21.45
MMP-9; [2]
  relative probability (RP) (acc.to MMP9): 35.93

## PKWM [P3-P1' tetramer cluster]
MMP-2
  avg_RP: 23.7433
MMP-9; tetramer probability in MMP9 set / naive library, 200 nM protease, 2 h, 37°C
  relative probability (RP): 51.5185

## PMALMD
MMP-2; [4]
  relative probability (RP): 34.1737
MMP-9; [5]
  relative probability (RP): 48.9468

## LRGL
MMP-2; [1]
  relative probability (RP) (acc.to MMP2): 20.33
MMP-9; [2]
  relative probability (RP) (acc.to MMP9): 28.75

## PSGD
MMP-2; [1]
  relative probability (RP) (acc.to MMP2): 0.16
MMP-9; [2]
  relative probability (RP) (acc.to MMP9): 0.48

## IQSI
MMP-2
  relative probability (RP) of matching tetramer: 15.56
MMP-2; [11]
  relative probability (RP) (acc.to MMP2): 15.56
MMP-2; unique part of MMP2 selectome
  normalized RP - MMP2: 0.4261
MMP-9; [12]
  relative probability (RP) (acc.to MMP9): 0.41
MMP-9; unique part of MMP2 selectome
  normalized RP - MMP9: 0.007827

## GRGL
MMP-2
  avg_RP: 4.9808
  relative probability (RP) of matching tetramer: 4.98
MMP-2; [6]
  relative probability (RP) (acc.to MMP2): 4.98
MMP-2; [7]
  relative probability (RP) (acc.to MMP2): 4.98
MMP-9; [8]
  relative probability (RP) (acc.to MMP9): 11.45
MMP-9; [9]
  relative probability (RP): 11.45
MMP-9; [10]
  relative probability (RP) (acc.to MMP9): 11.45

## TAPSSQ
MMP-2; [4]
  relative probability (RP): 25.0042
MMP-9; [5]
  relative probability (RP): 27.1142

## PSGK
MMP-2; [1]
  relative probability (RP) (acc.to MMP2): 2.08
MMP-9; [2]
  relative probability (RP) (acc.to MMP9): 1.08

## PAGE
MMP-2; [1]
  relative probability (RP) (acc.to MMP2): 0.05
MMP-9; [2]
  relative probability (RP) (acc.to MMP9): 0.06

## NAQL
MMP-2
  relative probability (RP) of matching tetramer: 9.69
MMP-2; [11]
  relative probability (RP) (acc.to MMP2): 9.69
MMP-2; unique part of MMP2 selectome
  normalized RP - MMP2: 0.2653
MMP-9; [12]
  relative probability (RP) (acc.to MMP9): 0
MMP-9; unique part of MMP2 selectome
  normalized RP - MMP9: 0

## QGAI
MMP-2; [1]
  relative probability (RP) (acc.to MMP2): 1.94
MMP-9; [2]
  relative probability (RP) (acc.to MMP9): 0

## IGTY
MMP-2
  relative probability (RP) of matching tetramer: 5.18
MMP-2; [11]
  relative probability (RP) (acc.to MMP2): 5.18
MMP-2; unique part of MMP2 selectome
  normalized RP - MMP2: 0.1418
MMP-9; [12]
  relative probability (RP) (acc.to MMP9): 0.06
MMP-9; unique part of MMP2 selectome
  normalized RP - MMP9: 0.001145
